Laboratory results reported in patent publication US11584763B2, “Chromenopyridine derivatives as phosphatidylinositol phosphate kinase inhibitors” (HIBERCELL, INC., priority 2017, dated 2023).

What was measured:
[1] = biological target: T1, PIP4K2B (Homo sapiens, UniProt P78356); test: Trans-FI P kinase assay PIP4K2B (PIP4KtypeIIB inhibition assay); format: biochemical; settings: compounds listed under IC50 bin headings; 100 uM GTP; read-out: Trans-FI P kinase assays: PIP4K2B IC50
T1 construct: made in house; host or cells: E. coli
T1 sequence (P78356 1-416): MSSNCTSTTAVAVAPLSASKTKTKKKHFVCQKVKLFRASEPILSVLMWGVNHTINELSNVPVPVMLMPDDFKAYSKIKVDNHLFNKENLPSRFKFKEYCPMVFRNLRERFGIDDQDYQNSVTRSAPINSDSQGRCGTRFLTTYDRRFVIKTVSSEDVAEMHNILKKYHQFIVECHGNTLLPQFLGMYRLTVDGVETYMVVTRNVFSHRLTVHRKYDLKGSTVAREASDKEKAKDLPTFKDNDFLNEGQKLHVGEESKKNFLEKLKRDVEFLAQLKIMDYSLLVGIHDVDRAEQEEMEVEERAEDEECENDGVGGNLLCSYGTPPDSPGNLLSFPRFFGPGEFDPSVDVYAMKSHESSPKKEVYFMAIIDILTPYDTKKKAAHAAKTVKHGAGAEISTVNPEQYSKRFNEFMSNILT
Description: GST tagged PIP4KtypeIIA and B enzymes were overexpressed in E. Coli and purified to >80% homogeneity. Phosphatidyl inositol-5-phosphate (PI5P, Cat. #850152, Avanti Polar Lipids Inc.) was used as the lipid substrate and phosphatidyl ethanolamine (DOPE 18:1, Cat. #850725, Avanti Polar Lipids Inc.) was used as the carrier lipid for assays. Ultrapure ATP and GTP was purchased from Bellbrooke Labs. ADP Glo reagents were obtained from Promega. Transcreener FI reagent was obtained from Bellbrooke labs.
GST-tagged PIP4KtypeIIB (3.4 uL, 2.77 mg/mL) was diluted to 5 mL using HNE buffer to yield 5× enzyme stock (25 nM)
Lipid Preparation: In a 10 mL pyrex glass vial, 1 ug of PI5P and 1 ug of DOPE were suspended in 2.5 mL of HEPES buffer mix and 2.5 mL of H:E buffer. The contents were mixed and sonicated for 3 min to yield a translucent lipid stock.
Compound Preparation: Compounds were stored as 5 mM stocks in neat DMSO as room temperature in glass vials. 5 mM stocks were diluted to 2 mM and then serially diluted (3×) in neat DMSO in 96 well polypropylene plates. From the serially diluted stocks, 3 uL was delivered into 250 uL of 25% DMSO (in water) to generate 5× compound stocks. Typically, the highest compound conc. was 24 uM.
The assay volume was kept at 25 uL. To each well of the reaction plate, 10 uL of lipid stock (1:1 ratio PI5P:DOPE) was delivered. This was followed by the addition of 5 uL of compound in 25% DMSO. Then, to each well, 5 uL of 25 nM (5×) typeIIB enzyme was delivered. The contents were mixed well and incubated for 1 h at 27 C. After 1 h, reaction was initiated by adding 5 uL of 500 uM GTP and the contents were mixed well with a multi-channel pipetteman. The final concentration of the reagents are as follows: 50 mM HEPES, pH 7.3, 10 mM MgCl2, 20 mM NaCl, 0.01% v/v triton-X100, 5% DMSO, 100 uM GTP, 80 uM (2 ug) PI5P, 2 ug DOPE, and 5 nM PIP4KIIB Typically, the highest conc. of compounds was 4.8 uM and the lowest conc. was 0.
After 2 h, the reaction was quenched by adding 25 uL of transcreener FI reagent. The contents were incubated at RT for 1 h and the Fluorescence (Ex: 584 Em: 623) was read using Molecular Devices Paradigm plate reader. […] The blanks were averaged and subtracted from all other wells. Using a calibration curve, RFU was converted to uM GDP (product). IC50 was calculated by plotting the residual activity (expressed as % No inhibitor control) vs. log [Inh. conc.]

[2] = biological target: T2, PIP4K 2A (Homo sapiens, UniProt P48426); test: ADP-glo kinase assay PIP4K 2A; format: biochemical; parameters: 4 nM PIP4K2A (full length protein, SignalChem); purchased SignalChem; settings: compounds listed under IC50 bin headings
T2 sequence (P48426 1-406): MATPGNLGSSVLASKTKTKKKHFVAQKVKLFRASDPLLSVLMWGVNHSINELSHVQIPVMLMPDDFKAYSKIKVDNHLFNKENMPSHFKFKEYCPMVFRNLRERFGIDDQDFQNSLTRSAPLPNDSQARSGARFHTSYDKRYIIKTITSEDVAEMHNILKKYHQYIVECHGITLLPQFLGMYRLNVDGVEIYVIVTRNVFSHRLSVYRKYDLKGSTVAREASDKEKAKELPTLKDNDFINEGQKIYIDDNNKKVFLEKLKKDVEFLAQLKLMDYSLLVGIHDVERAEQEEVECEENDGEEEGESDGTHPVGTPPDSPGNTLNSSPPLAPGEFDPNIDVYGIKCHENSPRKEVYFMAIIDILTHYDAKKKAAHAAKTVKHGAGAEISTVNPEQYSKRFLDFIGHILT
Experimental: Dilution series of the compounds were prepared in DMSO at 100 times the final assay concentration (n1=n0/3 in 10 points). The compounds were further diluted to three times the assay concentration in assay buffer (20 mM MOPS pH 7.2, 25 mM magnesium chloride, 0.005% Tween 20). 6 μL of the diluted compounds were added to a 384 well assay plate followed by 9 μL of a mix consisting of 4 nM PIP4K2A (full length protein, SignalChem) and 100 μM PI(5)P diC8 (Tebu-Bio). Enzyme and compounds were pre-incubated at room temperature for 15 minutes.
Then 3 μL of a solution containing 60 μM ATP (Promega) in assay buffer was added to the wells containing compound and enzyme and mixing was performed by pipetting several times. The reaction was incubated at room temperature for 1 h. Then 18 μL of ADP-Glo™ Reagent (Promega) was added to stop the kinase reaction and deplete the unconsumed ATP, mixing was performed by pipetting several times. The plate was incubated at room temperature for 40 minutes before addition of 36 μL of Kinase Detection Reagent (Promega) to convert ADP to ATP and introduce luciferase and luciferin to detect ATP. The reaction was incubated at room temperature for 40 minutes before the luminescence was measured in a in a Victor 3V 1420 multilabel counter (Perkin Elmer).
Percent inhibition of the compounds as compared to dimethyl sulfoxide treated control samples was calculated. Compound concentration versus percent inhibition were fitted to generate IC50 values.

SMILES | IC50 [1] | IC50 [2]
CC1Oc2cc(N3CCCC3=O)ccc2-c2cnc(Nc3cncc(NC(=O)c4cccc5c4COB5O)c3)cc21 (stereo not shown) [Example 118, 1-hydroxy-N-(5-((5-methyl-8-(2-oxopyrrolidin-1-yl)-5H-chromeno[4,3-c]pyridin-3-yl)amino)pyridin-3-yl)-1,3-dihydrobenzo[c][1,2]oxaborole-4-carboxamide] | 10 to 100 nM | 1 to 10 nM
CC1Oc2cc(N3CCCC3=O)ccc2-c2cnc(Nc3cncc(NC(=O)c4ccc(F)cc4)c3)cc21 (stereo not shown) [Example 119, 4-fluoro-N-(5-((5-methyl-8-(2-oxopyrrolidin-1-yl)-5H-chromeno[4,3-c]pyridin-3-yl)amino)pyridin-3-yl)benzamide] | 10 to 100 nM | 10 to 100 nM
CC1Oc2cc(N3CCCC3=O)ccc2-c2cnc(Nc3cncc(NC(=O)c4cccc(F)c4)c3)cc21 (stereo not shown) [Example 120, 3-fluoro-N-(5-((5-methyl-8-(2-oxopyrrolidin-1-yl)-5H-chromeno[4,3-c]pyridin-3-yl)amino)pyridin-3-yl)benzamide] | > 1000 nM | 1 to 10 nM
COc1ccc(C(=O)Nc2cncc(Nc3cc4c(cn3)-c3ccc(N5CCCC5=O)cc3OC4C)c2)cc1 (stereo not shown) [Example 122, 4-methoxy-N-(5-((5-methyl-8-(2-oxopyrrolidin-1-yl)-5H-chromeno[4,3-c]pyridin-3-yl)amino)pyridin-3-yl)benzamide] | 10 to 100 nM | 1 to 10 nM
CC1Oc2cc(N3CCCC3=O)ccc2-c2cnc(Nc3cncc(NC(=O)c4ccnnc4)c3)cc21 (stereo not shown) [Example 125, N-(5-((5-methyl-8-(2-oxopyrrolidin-1-yl)-5H-chromeno[4,3-c]pyridin-3-yl)amino)pyridin-3-yl)pyridazine-4-carboxamide] | 10 to 100 nM | 1 to 10 nM
CC1Oc2cc(N3CCCC3=O)ccc2-c2cnc(Nc3cncc(NC(=O)c4cncc(N)n4)c3)cc21 (stereo not shown) [Example 126, 6-amino-N-(5-((5-methyl-8-(2-oxopyrrolidin-1-yl)-5H-chromeno[4,3-c]pyridin-3-yl)amino)pyridin-3-yl)pyrazine-2-carboxamide] | 10 to 100 nM | 1 to 10 nM
CC(=O)Nc1cc(Nc2cc3c(cn2)-c2ccc(N4CCCC4=O)cc2OC3C)cnn1 (stereo not shown) [Example 129, N-(5-((5-methyl-8-(2-oxopyrrolidin-1-yl)-5H-chromeno[4,3-c]pyridin-3-yl)amino)pyridazin-3-yl)acetamide] | 10 to 100 nM | 1 to 10 nM
CC(CC(=O)Nc1cncc(Nc2cc3c(cn2)-c2ccc(N4CCCC4=O)cc2OC3C)c1)c1ccccc1 (stereo not shown) [Example 132, N-(5-((5-methyl-8-(2-oxopyrrolidin-1-yl)-5H-chromeno[4,3-c]pyridin-3-yl)amino)pyridin-3-yl)-3-phenylbutanamide] | 10 to 100 nM | 1 to 10 nM

Now from value to molecule:

IC50 [1] | IC50 [2] | SMILES
10 to 100 nM | 1 to 10 nM | CC1Oc2cc(N3CCCC3=O)ccc2-c2cnc(Nc3cncc(NC(=O)[C@H]4C[C@@H]4c4ccccc4)c3)cc21 (stereo partly drawn) [Example 111, (1S,2S)—N-(5-((5-methyl-8-(2-oxopyrrolidin-1-yl)-5H-chromeno[4,3-c]pyridin-3-yl)amino)pyridin-3-yl)-2-phenylcyclopropane-1-carboxamide]
10 to 100 nM | 1 to 10 nM | CC1Oc2cc(N3CCCC3=O)ccc2-c2cnc(Nc3cncc(NC(=O)c4ccccn4)c3)cc21 (stereo not shown) [Example 112, N-(5-((5-methyl-8-(2-oxopyrrolidin-1-yl)-5H-chromeno[4,3-c]pyridin-3-yl)amino)pyridin-3-yl)picolinamide]
10 to 100 nM | 1 to 10 nM | CC1Oc2cc(N3CCCC3=O)ccc2-c2cnc(Nc3cncc(NC(=O)c4cccnc4)c3)cc21 (stereo not shown) [Example 113, N-(5-((5-methyl-8-(2-oxopyrrolidin-1-yl)-5H-chromeno[4,3-c]pyridin-3-yl)amino)pyridin-3-yl)nicotinamide]
10 to 100 nM | 1 to 10 nM | CC1Oc2cc(N3CCCC3=O)ccc2-c2cnc(Nc3cncc(NC(=O)c4ccncc4)c3)cc21 (stereo not shown) [Example 114, N-(5-((5-methyl-8-(2-oxopyrrolidin-1-yl)-5H-chromeno[4,3-c]pyridin-3-yl)amino)pyridin-3-yl)isonicotinamide]
1 to 10 nM | ≤ 1 nM | CC1Oc2cc(N3CCCC3=O)ccc2-c2cnc(Nc3cncc(NC(=O)c4ccnc(N)c4)c3)cc21 (stereo not shown) [Example 115, 2-amino-N-(5-((5-methyl-8-(2-oxopyrrolidin-1-yl)-5H-chromeno[4,3-c]pyridin-3-yl)amino)pyridin-3-yl)isonicotinamide]
10 to 100 nM | ≤ 1 nM | CC1Oc2cc(N3CCCC3=O)ccc2-c2cnc(Nc3cncc(NC(=O)c4ccc5c(c4)COB5O)c3)cc21 (stereo not shown) [Example 116, 1-hydroxy-N-(5-((5-methyl-8-(2-oxopyrrolidin-1-yl)-5H-chromeno[4,3-c]pyridin-3-yl)amino)pyridin-3-yl)-1,3-dihydrobenzo[c][1,2]oxaborole-5-carboxamide]
10 to 100 nM | 1 to 10 nM | CC1Oc2cc(N3CCCC3=O)ccc2-c2cnc(Nc3cncc(NC(=O)c4ccc5c(c4)B(O)OC5)c3)cc21 (stereo not shown) [Example 117, 1-hydroxy-N-(5-((5-methyl-8-(2-oxopyrrolidin-1-yl)-5H-chromeno[4,3-c]pyridin-3-yl)amino)pyridin-3-yl)-1,3-dihydrobenzo[c][1,2]oxaborole-6-carboxamide]
1 to 10 nM | ≤ 1 nM | COc1cccc(C(=O)Nc2cncc(Nc3cc4c(cn3)-c3ccc(N5CCCC5=O)cc3OC4C)c2)c1 (stereo not shown) [Example 121, 3-methoxy-N-(5-((5-methyl-8-(2-oxopyrrolidin-1-yl)-5H-chromeno[4,3-c]pyridin-3-yl)amino)pyridin-3-yl)benzamide]
1 to 10 nM | 1 to 10 nM | CC1Oc2cc(N3CCCC3=O)ccc2-c2cnc(Nc3cncc(NC(=O)c4cccc5[nH]ccc45)c3)cc21 (stereo not shown) [Example 123, N-(5-((5-methyl-8-(2-oxopyrrolidin-1-yl)-5H-chromeno[4,3-c]pyridin-3-yl)amino)pyridin-3-yl)-1H-indole-4-carboxamide]
